Measurements: patent US6060475A, “Substituted pyrazin-2-yl-sulphonamide-(3-pyridyl) compounds and uses thereof” (Zeneca Limited, priority 1995, dated 2000)

Experiments:
[1] = system: Human ETA or ETB receptors; assay: Test A: inhibition of [125I]-Endothelin-1 binding to MEL cell membranes expressing recombinant receptor; conditions: receptor sub-type (ETA or ETB) not given
Text: Test A: The endothelin receptor antagonist activity of compounds of formula I may be assessed in vitro by their ability to inhibit binding of [^125 I]-Endothelin-1 to its receptors. Human ETA or ETB receptors (sub-types of the endothelin receptor) were expressed in Mouse Erythroleukemic Cells (MEL cells) by using standard molecular techniques (for example, as described by Sambrook J., Fritsch E. F. & Maniatis T. (1989) Molecular Cloning: A Laboratory Manual, 2nd Edition, Cold Spring Harbor Press, USA). cDNA sequences encoding the human ETA and ETB receptor (Hosoda K. et al (1991), FEBS Lett., 287, 23-26 and Sakamoto A. et al, (1991), Biochem. Biophys Res. Comm., 178, 656-663) are subcloned into pBluescript vector followed by insertion into the MEL cell expression vector pEV as described by Needham et al (1992), Nuc. Acids Res., 20, 997-1003. […]
[^125 I]-Endothelin-1 binding to MEL cell membranes was measured in incubation buffer containing 50 mM Tris HCl 1 mM CaCl2, 0.05% polyoxyethylenesorbitan monolaurate, 0.1% Bovine Serum Albumin (BSA), 0.02% sodium azide pH 7.4 at 30° C. after 180 minutes incubation. […] Nonspecific binding was measured in the presence of 100 nM unlabelled Endothelin-1. […] The filter discs were punched out and counted in a gamma counter. Compounds are tested in triplicate over a range of concentrations and IC50 (or pIC50) values calculated.

[2] = system: pressor response induced by intravenously-administered proendothelin-1; assay: Test D: antagonism of pressor response to intravenous proendothelin-1 in conscious rat after oral dosing; format: in vivo; conditions: rats, dosed orally at 3 mg/kg, determined one hour after administration, n=5, 30 mmHg change level
Text: Test D: This in vivo test involves the measurement of the antagonist effect of the test compound against the pressor response induced by intravenously-administered proendothelin-1 in a conscious rat preparation.
Male rats (260-290 g) are anaesthetised with Saffan administered via the tail vein. The right jugular vein and carotid artery are isolated and catheters filled with heparin implanted. These are exteriorised at the back of the neck using a metal trochar and the neck incision closed with autoclips. Rats are housed individually with free access to food and water during the recovery phase. Later in the day, food is removed and the rats are fasted overnight with free access to water. The following day the rats are placed in perspex restraining tubes and the arterial catheter drained and connected to a pressure transducer for measurement of mean arterial pressure. Following a ten minute stabilization period, proendothelin-1 (usually 0.3-1.0 nmol kg^-1) is administered cumulatively until a pressor response of 30 mmHg is achieved. The animals are then returned to their cages and allowed to recover for 2 hours. The test compound is administered orally (by gavage) at a known time point during the recovery period. […] Endothelin receptor antagonism is quantified by calculating dose ratio shifts at the 30 mmHg change level.

pIC50 in Test A [1]: 8.6
SMILES: COc1nc(C)cnc1NS(=O)(=O)c1cccnc1-c1ccc(OC(C)C)cc1 [Example 3, 2-(4-isopropoxyphenyl)-N-(3-methoxy-5-methylpyrazin-2-yl)pyridine-3-sulphonamide]
mean dose ratio shift on the pressor response to proendothelin-1 [2]: 2.93
